Source: patent US6838462B2, “Insecticidal azoles” (Bayer CropScience LP, priority 2001, dated 2005)

Assays:
Format in all cases: in vivo
[1] = tested on: Adults of Ctenocephalides felis, strain "Georgi"; test: Test with cat fleas / oral uptake; details: 24 h, read-out: % action (mortality of larvae)
Description: Test with Cat Fleas/Oral Uptake
Test animals: Adults of Crenocephalides felis
Solvent: Dimethyl sulphoxide (DMSO)
To produce a suitable preparation, a suitable solution of active compound is prepared from 20 mg of active compound and 1 ml of DMSO. 20 μl of this formulation are added to 4 ml of citrated cattle blood and stirred.
20 unfed adult fleas (Ctenocephalides felis, strain “Georgi”) are placed into a chamber (Ø 5 cm) whose top and bottom are closed with gauze. A metal cylinder whose underside is covered with parafilm is placed onto the chamber. The cylinder contains the 4 ml of blood/active compound formulation which can be taken up by the fleas through the parafilm membrane. Whereas the blood is warmed to 37° C., the temperature in the area of the flea chambers is adjusted to 25° C. Controls are mixed with the same volume of DMSO, without addition of a compound. The determinations are carried out triplicate.
After 24 h, the mortality in % is determined.
Compounds which effect an at least 25% kill of the fleas within 24 h are judged to be effective.

[2] = tested on: Third larval stages of Periplanela americana; test: Test with cockroaches - dip treatment; details: dip treatment 60 seconds, after 7 days, 100% = all cockroach larvae killed
Description: Test with Cockroaches—Dip Treatment
Test animals: Third larval stages of Periplanela americana
(§1) Solvent: Dimethyl sulphoxide
(§2) 20 mg of active compound are dissolved in one ml of dimethyl sulphoxide. To prepare a suitable formulation, the solution of active compound is diluted with water to the particular concentration desired.
[…] of this preparation of active compound are pipetted into tubes (Ø 1.5 cm, H 10 cm). 4 cockroach larvae are anaesthetized with CO2 and transferred into a tube (Ø 1.2 cm, H 9 cm) with 3 holes (bottom and 5 cm below the upper rim). […] The tube is dipped into the preparation of active compound for 60 seconds, with all cockroach larvae being wetted completely. After the liquid has run off, the cockroach larvae are transferred to filter discs in PP dishes (Ø 9.7 cm. H 8 cm).
After 2 and 24 hours and after 7 days, the activity of the preparation of active compound is determined. 100% means that all cockroach larvae have been killed; 0% means that none of the cockroach larvae have been killed.

Lucilia cuprina larvae = test: Blowfly larvae test / development-inhibitory action; details: 48 h, read-out: % action (mortality of larvae)
Description: Blowfly Larvae Test/Development-Inhibitory Action
Test animals: Lucilia cuprina larvae
as §1, §2
About 20 Lucilia cuprina larvae are introduced into a test tube which contains about 1 cm^3 of horsemeat and 0.5 ml of the preparation of active compound to be tested. The activity of the preparation of active compound is determined after 48 hours as the mortality of the larvae in %.
The test tubes are then transferred into a beaker whose bottom is covered with sand. After a further 12 days, the test tubes are removed and the pupae and flies are counted. The development-inhibitory action is stated as inhibition of hatching in % (ratio of pupae to flies that have hatched) after 1.5 times the development period of an untreated control.

With `Cc1s/c(=N\C#N)n2c1N(Cc1ccc(Cl)nc1)CC2` [Compound I-1, 1-[6-Chloro-3-pyridylmethyl]-5-cyanoimino-7-methyl-4.5-dihydro[1,3]diazolano-[1,2-c][1,3]thiazoline] the mortality at 100 ppm [1] was 30%, the “% action (7 d)” value ([2]; 100 ppm) was 100% and the “% action (7 d)” value ([2]; 300 ppm) was 100%. The “% action (7 d)” value ([2]; 1000 ppm) was 100%, the mortality at 100 ppm (Lucilia cuprina larvae) was 100% and the mortality at 300 ppm (Lucilia cuprina larvae) was 100%. It also gave a mortality at 1000 ppm (Lucilia cuprina larvae) of 100%.
